Results as given in patent US20240148821A1, “PHARMACEUTICAL USE OF CYCLIC PEPTIDE COMPOUND” (CHUGAI SEIYAKU KABUSHIKI KAISHA, priority 2021, published 2024).
Numbered stars: 1 amine (or outer) side, 2 acyl side, 3 side chain; on linkers, the order of the positions; unused ones are H or OH. Bridge positions count the residues as written; N and C are the ends. Square brackets hold non-standard residues; d marks the D form. Peptide text beside a SMILES is read from it. * marks the point of attachment. hPhe(3-Cl-4-CF3) = N[C@@H](CCc1ccc(C(F)(F)F)c(Cl)c1)C(=O)O; hPhe(3-F,4-CF3) = N[C@@H](CCc1ccc(C(F)(F)F)c(F)c1)C(=O)O; NMePhe(2-CF3) = CN[C@@H](Cc1ccccc1C(F)(F)F)C(=O)O; NMeAla(4-thiazolyl) = CN[C@@H](Cc1cscn1)C(=O)O; NMePhe(4-Cl) = CN[C@@H](Cc1ccc(Cl)cc1)C(=O)O; NMePhe(4-Me) = CN[C@@H](Cc1ccc(C)cc1)C(=O)O; NMePhe(4-F) = CN[C@@H](Cc1ccc(F)cc1)C(=O)O; hPhe(4-Cl) = N[C@@H](CCc1ccc(Cl)cc1)C(=O)O; X72 = O=C([C@@H]1Cc2ccccc2N1[*:1])[*:2]; NMeGly(cPent) = CN[C@H](C(=O)O)C1CCCC1; Phe(3-I) = N[C@@H](Cc1cccc(I)c1)C(=O)O; NMeY = CN[C@@H](Cc1ccc(O)cc1)C(=O)O; NMeCha = CN[C@@H](CC1CCCCC1)C(=O)O; NMeGly(cPr) = CN[C@H](C(=O)O)C1CC1; NMehLeu = CN[C@@H](CCC(C)C)C(=O)O; NMeChg = CN[C@H](C(=O)O)C1CCCCC1; NMeI = CC[C@H](C)[C@H](NC)C(=O)O; NMeD = CN[C@@H](CC(=O)O)C(=O)O; NMeL = CN[C@@H](CC(C)C)C(=O)O; NMeV = CN[C@H](C(=O)O)C(C)C; d(β3hA) = C[C@@H](N)CC(=O)O; Azetidin(1-yl) = C1CN(*)C1; NMeS = CN[C@@H](CO)C(=O)O; Pip = O=C(O)[C@@H]1CCCCN1; NMeA = CN[C@@H](C)C(=O)O; Nle = CCCC[C@H](N)C(=O)O; Piperidide = C1CCN(*)CC1; Ac5c = NC1(C(=O)O)CCCC1; Aze = O=C(O)[C@@H]1CCN1; CF3 = FC(F)(F)*; Sar = CNCC(=O)O

What follows are molecules tested on Human pancreatic cancer cell line AsPC-1 (G12D mutation Kras) (assay: AsPC-1 cell growth inhibition (AsPC-1 CGI)). Settings: read-out: AsPC-1 cell growth inhibition, 50% growth inhibitory concentration (IC50 value); 96 hours, CellTiter-Glo, values classified in ranges.
Assay type: cell-based
Protocol: Test compounds were serially dilated with dimethyl sulfoxide, and 200 nL was then dispensed to a U-bottom 96-well plate using Labcyte Echo. […] The cell suspension was dispensed to a. plate containing a test compound at 100 μL per well and incubated at 37° C. in a 5% carbon dioxide gas incubator. 96 hours later, 80 μL of CellTiter-Glo (Promega) was added to each well and fluorescence was measured.

Row | SMILES | IC50
1 | CC[C@H](C)[C@@H]1NC(=O)[C@H](CCC(C)C)N(C)C(=O)C[C@@H](C(=O)N2CCC2)N(C)C(=O)[C@H](C2CCCC2)N(C)C(=O)C2(CCCC2)NC(=O)[C@@H]2CCCN2C(=O)[C@H](CCc2ccc(C(F)(F)F)c(Cl)c2)NC(=O)CN(C)C(=O)[C@H](CC2CCCCC2)N(C)C(=O)[C@@H]2CCN2C(=O)[C@H](C)N(C)C1=O [Compound 806] ([NMehLeu]I[NMeA][Aze][NMeCha][Sar][hPhe(3-Cl-4-CF3)]P[Ac5c][NMeGly(cPent)][NMeD]-{Azetidin(1-yl)}; lactam N-11) | ≤ 20 nM
2 | CC[C@H](C)[C@@H]1NC(=O)[C@H](CC(C)C)N(C)C(=O)C[C@@H](C(=O)N2CCCCC2)N(C)C(=O)[C@H](C2CCCCC2)N(C)C(=O)C2(CCCC2)NC(=O)[C@@H]2Cc3ccccc3N2C(=O)[C@H](CCc2ccc(C(F)(F)F)c(Cl)c2)NC(=O)CN(C)C(=O)[C@H](CC2CCCCC2)N(C)C(=O)[C@@H]2CCN2C(=O)[C@H](C)N(C)C1=O [Compound 812] ([NMeL]I[NMeA][Aze][NMeCha][Sar][hPhe(3-Cl-4-CF3)][X72][Ac5c][NMeChg][NMeD]-Piperidide; lactam N-11) | > 500 nM
3 | CCCC[C@@H]1NC(=O)[C@H](Cc2cccc(I)c2)NC(=O)CN(C)C(=O)[C@H](Cc2ccc(Cl)cc2)N(C)C(=O)CN(C)C(=O)CN(C)C(=O)[C@H]([C@@H](C)CC)NC(=O)[C@H](CC(C)C)N(C)C(=O)C[C@@H](C(=O)N2CCCCC2)N(C)C(=O)[C@H](CC(C)C)NC(=O)[C@H](Cc2ccccc2C(F)(F)F)N(C)C1=O [Compound 813] ([NMeL]I[Sar][Sar][NMePhe(4-Cl)][Sar][Phe(3-I)][Nle][NMePhe(2-CF3)]L[NMeD]-Piperidide; lactam N-11) | > 500 nM
4 | CCCC[C@@H]1NC(=O)[C@H](Cc2cccc(I)c2)NC(=O)CN(C)C(=O)[C@H](Cc2ccc(Cl)cc2)N(C)C(=O)CN(C)C(=O)CN(C)C(=O)[C@H]([C@@H](C)CC)NC(=O)[C@H](CC(C)C)N(C)C(=O)C[C@@H](C(=O)N2CCCCC2)N(C)C(=O)[C@H](CC(C)C)NC(=O)[C@H](Cc2ccc(OC(F)(F)F)cc2)N(C)C1=O [Compound 819] ([NMeL]I[Sar][Sar][NMePhe(4-Cl)][Sar][Phe(3-I)][Nle][NMeY](CF3)L[NMeD]-Piperidide; lactam N-11) | > 500 nM
5 | CC[C@H](C)[C@@H]1NC(=O)[C@H](C)N(C)C(=O)C[C@@H](C(=O)N2CCCCC2)N(C)C(=O)[C@H](C(C)C)N(C)C(=O)C2(CCCC2)NC(=O)[C@H](Cc2ccc(F)cc2)N(C)C(=O)[C@H](CCc2ccc(C(F)(F)F)c(Cl)c2)NC(=O)CN(C)C(=O)[C@H](CC2CCCCC2)N(C)C(=O)CN(C)C(=O)CN(C)C1=O [Compound 821] ([NMeA]I[Sar][Sar][NMeCha][Sar][hPhe(3-Cl-4-CF3)][NMePhe(4-F)][Ac5c][NMeV][NMeD]-Piperidide; lactam N-11) | > 500 nM
6 | CC[C@H](C)[C@@H]1NC(=O)[C@@H]2CCCCN2C(=O)C[C@@H](C(=O)N2CCCCC2)N(C)C(=O)[C@H](C(C)C)N(C)C(=O)C2(CCCC2)NC(=O)[C@@H]2CCCN2C(=O)[C@H](CCc2ccc(Cl)cc2)NC(=O)CN(C)C(=O)[C@H](CC2CCCCC2)N(C)C(=O)CN(C)C(=O)CN(C)C1=O [Compound 841] ([Pip]I[Sar][Sar][NMeCha][Sar][hPhe(4-Cl)]P[Ac5c][NMeV][NMeD]-Piperidide; lactam N-11) | > 500 nM
7 | CC[C@H](C)[C@@H]1NC(=O)[C@H](C2CC2)N(C)C(=O)C[C@@H](C)NC(=O)[C@H](C(C)C)N(C)C(=O)C2(CCCC2)NC(=O)[C@@H]2CCCN2C(=O)[C@H](CCc2ccc(C(F)(F)F)c(Cl)c2)NC(=O)CN(C)C(=O)[C@H](CC2CCCCC2)N(C)C(=O)CN(C)C(=O)CN(C)C1=O [Compound 844] (cyclo([Ac5c][NMeV][d(β3hA)][NMeGly(cPr)]I[Sar][Sar][NMeCha][Sar][hPhe(3-Cl-4-CF3)]P)) | > 500 nM
8 | CC[C@H](C)[C@@H]1NC(=O)[C@H](CC(C)C)N(C)C(=O)C[C@@H](C(=O)N2CCCCC2)N(C)C(=O)[C@H](COC)N(C)C(=O)C2(CCCC2)NC(=O)[C@@H]2CCCN2C(=O)[C@H](CCc2ccc(C(F)(F)F)c(Cl)c2)NC(=O)CN(C)C(=O)[C@H](CC2CCCCC2)N(C)C(=O)CN(C)C(=O)CN(C)C1=O [Compound 850] ([NMeL]I[Sar][Sar][NMeCha][Sar][hPhe(3-Cl-4-CF3)]P[Ac5c][NMeS](Me)[NMeD]-Piperidide; lactam N-11) | > 500 nM
9 | CC[C@H](C)[C@@H]1NC(=O)[C@H](C(C)C)N(C)C(=O)C[C@@H](C)NC(=O)[C@H](CC(C)C)N(C)C(=O)C2(CCCC2)NC(=O)[C@H](CC(C)C)N(C)C(=O)[C@H](CCc2ccc(C(F)(F)F)c(F)c2)NC(=O)CN(C)C(=O)[C@H](Cc2ccc(Cl)cc2)N(C)C(=O)CN(C)C(=O)CN(C)C1=O [Compound 851] (cyclo([Ac5c][NMeL][d(β3hA)][NMeV]I[Sar][Sar][NMePhe(4-Cl)][Sar][hPhe(3-F,4-CF3)][NMeL])) | > 500 nM
10 | CC[C@H](C)[C@@H]1NC(=O)[C@H](CC(C)C)N(C)C(=O)C[C@@H](C(=O)N(C)C)N(C)C(=O)[C@H]([C@@H](C)CC)N(C)C(=O)[C@H](C)NC(=O)[C@H](Cc2cscn2)N(C)C(=O)[C@H](CCc2ccc(C(F)(F)F)c(Cl)c2)NC(=O)CN(C)C(=O)[C@H](Cc2ccc(C)cc2)N(C)C(=O)[C@@H]2CCN2C(=O)[C@H](C)N(C)C1=O [Compound 856] ([NMeL]I[NMeA][Aze][NMePhe(4-Me)][Sar][hPhe(3-Cl-4-CF3)][NMeAla(4-thiazolyl)]A[NMeI][NMeD]-NMe2; lactam N-11) | > 500 nM
